US11517018B2, “Herbicidal composition comprising cinmethylin and saflufenacil” (BASF Agro B.V., priority 2015, dated 2022)
Several values for one entry are separate records, joined by “and”; a condition that tells them apart may be missing. Identical values can stand only once.

What was measured:
Format in all cases: in vivo
Details in all cases: 20 DAT
[1] = system: Lolium multiflorum; assay: Greenhouse postemergence herbicidal activity, LOLMU
Experimental: (§1) The test plants have been seeded, separately for each species, in plastic containers in sandy loamy soil containing 5% of organic matter.
(§2) For the post emergence treatment, the plants were first grown to the 2 leaf station (GS 12). Here, the herbicidal compositions were suspended or emulsified in water as distribution medium and sprayed using finely distributing nozzels.
(§3) The plants have been cultivated due to their individual requirements at 10-25° C. and 20-35° C. The plants were irrigated due to their necessity.
(§4) In the following experiments, the herbicidal activity for the individual herbicidal compositions (solo and mixture applications) was assessed 20 days after treatment (DAT).
(§5) The evaluation for the damage on undesired weeds caused by the chemical compositions was carried out using a scale from 0 to 100%, compared to the untreated control plants. Here, 0 means no damage and 100 means complete destruction of the plants.
(§6) E=X+Y−(X·Y/100) where • X=effect in percent using herbicide A at an application rate a; • Y=effect in percent using herbicide B at application rate b; • E=expected effect (in %) of herbicide A+herbicide B at application rates a+b.
(§7) The value E corresponds to the effect (plant damage or injury) which is to be expected if the activity of the individual compounds is additive. If the observed effect is higher than the value E calculated according to the Colby equation, a synergistic effect is present.

[2] = system: Papaver rhoeas; assay: Greenhouse preemergence herbicidal activity, PAPRH
Experimental: as §1
(§8) The containers were irrigated gently to promote germination and growth and subsequently covered with transparent plastic hoods until the plants had rooted.
as §3, §4, §5, §6, §7

[3] = system: Sorghum halepense; assay: Greenhouse postemergence herbicidal activity, SORHA
Experimental: as §1, §2, §3, §4
The evaluation for the damage on undesired weeds caused by the chemical compositions was carried out using a scale from 0 to 100%, compared to the untreated control plants. Here, 0 means no damage and 100 means complete destruction of the plants. […]
as §7

[4] = system: Alopecurus myosuroides; assay: Greenhouse preemergence herbicidal activity, ALOMY
Experimental: as §1, §8, §3, §4, §5, §6, §7

[5] = system: Stellaria media; assay: Greenhouse preemergence herbicidal activity, STEME
Experimental: as §1, §8, §3, §4, §5, §6, §7

[6] = system: Digitaria sanguinalis; assay: Greenhouse postemergence herbicidal activity, DIGSA
Experimental: as §1, §2, §3, §4, §5, §6, §7

[7] = system: Avena fatua; assay: Greenhouse postemergence herbicidal activity, AVEFA
Experimental: as §1, §2, §3, §4, §5, §6, §7

[8] = system: Sorghum halepense; assay: Greenhouse preemergence herbicidal activity, SORHA
Experimental: as §1, §8, §3, §4, §5, §6, §7

[9] = system: Setaria viridis; assay: Greenhouse preemergence herbicidal activity, SETVI
Experimental: as §1, §8, §3, §4, §5, §6, §7

[10] = system: Galium aparine; assay: Greenhouse preemergence herbicidal activity, GALAP
Experimental: as §1, §8, §3, §4, §5, §6, §7

[11] = system: Abutilon theophrasti; assay: Greenhouse preemergence herbicidal activity, ABUTH
Experimental: as §1, §8, §3, §4, §5, §6, §7

[12] = system: Stellaria media; assay: Greenhouse postemergence herbicidal activity, STEME
Experimental: as §1, §2, §3, §4, §5, §6, §7

[13] = system: Polygonum convolvulus; assay: Greenhouse preemergence herbicidal activity, POLCO
Experimental: as §1, §8, §3, §4, §5, §6, §7

[14] = system: Avena fatua; assay: Greenhouse preemergence herbicidal activity, AVEFA
Experimental: as §1, §8, §3, §4, §5, §6, §7

[15] = system: Chenopodium album; assay: Greenhouse preemergence herbicidal activity, CHEAL
Experimental: as §1, §8, §3, §4, §5, §6, §7

[16] = system: Geranium dissectum; assay: Greenhouse preemergence herbicidal activity, GERDI
Experimental: as §1, §8, §3, §4, §5, §6, §7

[17] = system: Lolium multiflorum; assay: Greenhouse preemergence herbicidal activity, LOLMU
Experimental: as §1, §8, §3, §4, §5, §6, §7

[18] = saflufenacil solo 0.625 g ai/ha

`Cc1ccccc1CO[C@@H]1C[C@@]2(C(C)C)CC[C@@]1(C)O2` (racemic) [herbicide A, (±)-2-exo-(2-Methylbenzyloxy)-1-methyl-4-isopropyl-7-oxabicyclo[2.2.1]heptane] showed a herbicidal activity ([1]; herbicide A solo 43.8 g ai/ha) of 0%, a herbicidal activity ([1]; herbicide A solo 62.5 g ai/ha) of 0% and a herbicidal activity ([1]; herbicide A solo 87.5 g ai/ha) of 0%. The herbicidal activity ([1]; herbicide A solo 125 g ai/ha) was 0%, the herbicidal activity ([1]; herbicide A solo 350 g ai/ha) was 75% and the herbicidal activity ([2]; herbicide A solo 25 g ai/ha) was 0%. It also gave a herbicidal activity ([2]; herbicide A solo 31.25 g ai/ha) of 65%, a herbicidal activity ([2]; herbicide A solo 50 g ai/ha) of 0% and a herbicidal activity ([3]; herbicide A solo 350 g ai/ha) of 70%. The herbicidal activity ([4]; herbicide A solo 31.25 g ai/ha) was 95%, the herbicidal activity ([4]; herbicide A solo 62.5 g ai/ha) was 95% and 98% and the herbicidal activity ([5]; herbicide A solo 31.25 g ai/ha) was 40%. For the same compound, the herbicidal activity ([5]; herbicide A solo 50 g ai/ha) was 20%, the herbicidal activity ([6]; herbicide A solo 87.5 g ai/ha) was 65% and the herbicidal activity ([6]; herbicide A solo 125 g ai/ha) was 85%. The herbicidal activity ([7]; herbicide A solo 43.8 g ai/ha) was 25%, the herbicidal activity ([7]; herbicide A solo 87.5 g ai/ha) was 30% and the herbicidal activity ([7]; herbicide A solo 350 g ai/ha) was 70%. It also gave a herbicidal activity ([8]; herbicide A solo 50 g ai/ha) of 95%, a herbicidal activity ([8]; herbicide A solo 100 g ai/ha) of 98% and a herbicidal activity ([8]; herbicide A solo 200 g ai/ha) of 98%. For the same compound, the herbicidal activity ([9]; herbicide A solo 31.25 g ai/ha) was 95%, the herbicidal activity ([9]; herbicide A solo 62.5 g ai/ha) was 90% and the herbicidal activity ([9]; herbicide A solo 125 g ai/ha) was 95%. It also gave a herbicidal activity ([9]; herbicide A solo 250 g ai/ha) of 98%, a herbicidal activity ([10]; herbicide A solo 25 g ai/ha) of 0% and a herbicidal activity ([10]; herbicide A solo 50 g ai/ha) of 0%. The herbicidal activity ([10]; herbicide A solo 125 g ai/ha) was 65%, the herbicidal activity ([10]; herbicide A solo 200 g ai/ha) was 30% and the herbicidal activity ([11]; herbicide A solo 31.25 g ai/ha) was 35%. It also gave a herbicidal activity ([11]; herbicide A solo 50 g ai/ha) of 0%, a herbicidal activity ([11]; herbicide A solo 62.5 g ai/ha) of 40% and a herbicidal activity ([11]; herbicide A solo 100 g ai/ha) of 0%. For the same compound, the herbicidal activity ([12]; herbicide A solo 43.8 g ai/ha) was 0%, the herbicidal activity ([12]; herbicide A solo 62.5 g ai/ha) was 25% and the herbicidal activity ([13]; herbicide A solo 25 g ai/ha) was 0%. It also gave a herbicidal activity ([13]; herbicide A solo 50 g ai/ha) of 0%, a herbicidal activity ([13]; herbicide A solo 62.5 g ai/ha) of 0% and a herbicidal activity ([14]; herbicide A solo 31.25 g ai/ha) of 30%. The herbicidal activity ([14]; herbicide A solo 50 g ai/ha) was 0%, the herbicidal activity ([14]; herbicide A solo 100 g ai/ha) was 20% and the herbicidal activity ([14]; herbicide A solo 125 g ai/ha) was 35%. The herbicidal activity ([14]; herbicide A solo 200 g ai/ha) was 50%, the herbicidal activity ([14]; herbicide A solo 250 g ai/ha) was 60% and 70% and the herbicidal activity ([14]; herbicide A solo 500 g ai/ha) was 80%. It also gave a herbicidal activity ([15]; CHEAI, herbicide A solo 62.5 g ai/ha) of 40%, a herbicidal activity ([15]; CHEAL, herbicide A solo 125 g ai/ha) of 95% and a herbicidal activity ([15]; CHEAL, herbicide A solo 500 g ai/ha) of 85%. The herbicidal activity ([16]; herbicide A solo 25 g ai/ha) was 50%, the herbicidal activity ([16]; herbicide A solo 125 g ai/ha) was 80% and the herbicidal activity ([17]; herbicide A solo 25 g ai/ha) was 50%. The herbicidal activity ([17]; herbicide A solo 62.5 g ai/ha) was 30%, the herbicidal activity ([17]; herbicide A solo 100 g ai/ha) was 95% and the herbicidal activity ([17]; herbicide A solo 125 g ai/ha) was 85%. The herbicidal activity ([17]; herbicide A solo 200 g ai/ha) was 98%, the herbicidal activity ([17]; herbicide A solo 250 g ai/ha) was 98% and the herbicidal activity ([17]; herbicide A solo 500 g ai/ha) was 95%.

For `CC(C)N(C)S(=O)(=O)NC(=O)c1cc(-n2c(=O)cc(C(F)(F)F)n(C)c2=O)c(F)cc1Cl` [saflufenacil, N′-{2-chloro-4-fluoro-5-[1,2,3,6-tetrahydro-3-methyl-2,6-dioxo-4-(trifluoromethyl)pyrimidin-1-yl]benzoyl}-N-isopropyl-N-methylsulfamide], the herbicidal activity [1, 18] was 0%, the herbicidal activity ([1]; saflufenacil solo 1.25 g ai/ha) was 0% and the herbicidal activity ([1]; saflufenacil solo 5 g ai/ha) was 50%. For the same compound, the herbicidal activity ([2]; saflufenacil solo 3.13 g ai/ha) was 95%, the herbicidal activity ([2]; saflufenacil solo 4.4 g ai/ha) was 85% and the herbicidal activity ([2]; saflufenacil solo 6.25 g ai/ha) was 90%. The herbicidal activity ([3]; saflufenacil solo 5 g ai/ha) was 65%, the herbicidal activity ([4]; saflufenacil solo 4.4 g ai/ha) was 0% and the herbicidal activity ([4]; saflufenacil solo 8.8 g ai/ha) was 0%. It also gave a herbicidal activity ([4]; saflufenacil solo 25 g ai/ha) of 0%, a herbicidal activity ([5]; saflufenacil solo 4.4 g ai/ha) of 90% and a herbicidal activity ([5]; saflufenacil solo 6.25 g ai/ha) of 95%. It also gave a herbicidal activity ([6]; saflufenacil solo 1.25 g ai/ha) of 75%, a herbicidal activity [7, 18] of 0% and a herbicidal activity ([7]; saflufenacil solo 1.25 g ai/ha) of 0%. It also gave a herbicidal activity ([7]; saflufenacil solo 5 g ai/ha) of 0%, a herbicidal activity ([8]; saflufenacil solo 6.25 g ai/ha) of 0% and a herbicidal activity ([8]; saflufenacil solo 12.5 g ai/ha) of 10%. The herbicidal activity ([8]; saflufenacil solo 25 g ai/ha) was 30%, the herbicidal activity ([9]; saflufenacil solo 4.4 g ai/ha) was 0% and the herbicidal activity ([9]; saflufenacil solo 25 g ai/ha) was 60%. The herbicidal activity ([9]; saflufenacil solo 50 g ai/ha) was 65%, the herbicidal activity ([10]; saflufenacil solo 3.13 g ai/ha) was 0% and the herbicidal activity ([10]; saflufenacil solo 6.25 g ai/ha) was 20%. It also gave a herbicidal activity ([10]; saflufenacil solo 17.5 g ai/ha) of 95%, a herbicidal activity ([10]; saflufenacil solo 25 g ai/ha) of 98% and a herbicidal activity ([11]; saflufenacil solo 4.4 g ai/ha) of 65%. For the same compound, the herbicidal activity ([11]; saflufenacil solo 6.25 g ai/ha) was 98%, the herbicidal activity ([11]; saflufenacil solo 8.8 g ai/ha) was 85% and the herbicidal activity ([11]; saflufenacil solo 12.5 g ai/ha) was 98%. For the same compound, the herbicidal activity [12, 18] was 85%, the herbicidal activity ([13]; saflufenacil solo 3.13 g ai/ha) was 20% and the herbicidal activity ([13]; saflufenacil solo 6.25 g ai/ha) was 98%. The herbicidal activity ([13]; saflufenacil solo 8.8 g ai/ha) was 90%, the herbicidal activity ([14]; saflufenacil solo 4.4 g ai/ha) was 0% and the herbicidal activity ([14]; saflufenacil solo 6.25 g ai/ha) was 0%. It also gave a herbicidal activity ([14]; saflufenacil solo 8.8 g ai/ha) of 0%, a herbicidal activity ([14]; saflufenacil solo 12.5 g ai/ha) of 0% and a herbicidal activity ([14]; saflufenacil solo 35 g ai/ha) of 20%. It also gave a herbicidal activity ([14]; saflufenacil solo 50 g ai/ha) of 0%, a herbicidal activity ([15]; CHEAI, saflufenacil solo 25 g ai/ha) of 90% and a herbicidal activity ([15]; CHEAL, saflufenacil solo 25 g ai/ha) of 90%. For the same compound, the herbicidal activity ([16]; saflufenacil solo 3.13 g ai/ha) was 20%, the herbicidal activity ([16]; saflufenacil solo 17.5 g ai/ha) was 80% and the herbicidal activity ([17]; saflufenacil solo 3.13 g ai/ha) was 0%. For the same compound, the herbicidal activity ([17]; saflufenacil solo 12.5 g ai/ha) was 0%.
